US10457677B2 (priority 2015, dated 2019)

Target: purified human recombinant ATM (ataxia telangiectasia mutated), full length (Homo sapiens (Human), UniProt Q13315)
Assay: ATM kinase assay - determination of ATM inhibition (IC50 ATM), TR-FRET
Assay type: biochemical
Settings: 10 μM ATP, substrate p53
Description: ATM kinase assay—determination of ATM inhibition (IC50 ATM):
The IC50 value was determined with the aid of a biochemical ATM kinase assay. The assay consists of two steps: the enzymatic reaction and the detection step. Firstly, ATM (ataxia telangiectasia mutated) protein and the test substance are incubated at different concentrations with addition of substrate protein p53 and ATP. ATM mediates the phosphorylation of p53 at several positions, including at amino acid S15. The amount of phosphorylated p53 is determined with the aid of specific antibodies and the TR-FRET technique. The enzymatic ATM assay is carried out as TR-FRET (HTRF™, Cisbio Bioassays) based 384-well assay. In the first step, purified human recombinant ATM (human ATM, full length, GenBank ID NM_000051, expressed in a mammal cell line) is incubated in assay buffer for 15 minutes with the ATM inhibitor in various concentrations and without test substance as negative or neutral control. The assay buffer comprises 25 mM HEPES pH 8.0, 10 mM Mg(CH3COO)2, 1 mM MnCl2, 0,1% BSA and 0,01% Brij® 35, 5 mM dithiothreitol (DTT). […] In the second step, purified human recombinant cmyc-labelled p53 (human p53, full length, GenBank ID BC003596, expressed in Sf21 insect cells) and ATP are added, and the reaction mixture is incubated at 22° C. for 30-35 minutes. The pharmacologically relevant assay volume is 5 μl. […] The enzymatic reaction is stopped by addition of EDTA. […] After incubation, usually for 2 hours (between 1.5 and 15h), for signal development, the plates are analysed in a plate reader (EnVision, PerkinElmer) using TRF mode (and with laser excitation). […] The measurement data were processed by means of Genedata Screener software.

purified human recombinant ATM (ataxia telangiectasia mutated), full length, sequence (Q13315 whole entry, change not shown): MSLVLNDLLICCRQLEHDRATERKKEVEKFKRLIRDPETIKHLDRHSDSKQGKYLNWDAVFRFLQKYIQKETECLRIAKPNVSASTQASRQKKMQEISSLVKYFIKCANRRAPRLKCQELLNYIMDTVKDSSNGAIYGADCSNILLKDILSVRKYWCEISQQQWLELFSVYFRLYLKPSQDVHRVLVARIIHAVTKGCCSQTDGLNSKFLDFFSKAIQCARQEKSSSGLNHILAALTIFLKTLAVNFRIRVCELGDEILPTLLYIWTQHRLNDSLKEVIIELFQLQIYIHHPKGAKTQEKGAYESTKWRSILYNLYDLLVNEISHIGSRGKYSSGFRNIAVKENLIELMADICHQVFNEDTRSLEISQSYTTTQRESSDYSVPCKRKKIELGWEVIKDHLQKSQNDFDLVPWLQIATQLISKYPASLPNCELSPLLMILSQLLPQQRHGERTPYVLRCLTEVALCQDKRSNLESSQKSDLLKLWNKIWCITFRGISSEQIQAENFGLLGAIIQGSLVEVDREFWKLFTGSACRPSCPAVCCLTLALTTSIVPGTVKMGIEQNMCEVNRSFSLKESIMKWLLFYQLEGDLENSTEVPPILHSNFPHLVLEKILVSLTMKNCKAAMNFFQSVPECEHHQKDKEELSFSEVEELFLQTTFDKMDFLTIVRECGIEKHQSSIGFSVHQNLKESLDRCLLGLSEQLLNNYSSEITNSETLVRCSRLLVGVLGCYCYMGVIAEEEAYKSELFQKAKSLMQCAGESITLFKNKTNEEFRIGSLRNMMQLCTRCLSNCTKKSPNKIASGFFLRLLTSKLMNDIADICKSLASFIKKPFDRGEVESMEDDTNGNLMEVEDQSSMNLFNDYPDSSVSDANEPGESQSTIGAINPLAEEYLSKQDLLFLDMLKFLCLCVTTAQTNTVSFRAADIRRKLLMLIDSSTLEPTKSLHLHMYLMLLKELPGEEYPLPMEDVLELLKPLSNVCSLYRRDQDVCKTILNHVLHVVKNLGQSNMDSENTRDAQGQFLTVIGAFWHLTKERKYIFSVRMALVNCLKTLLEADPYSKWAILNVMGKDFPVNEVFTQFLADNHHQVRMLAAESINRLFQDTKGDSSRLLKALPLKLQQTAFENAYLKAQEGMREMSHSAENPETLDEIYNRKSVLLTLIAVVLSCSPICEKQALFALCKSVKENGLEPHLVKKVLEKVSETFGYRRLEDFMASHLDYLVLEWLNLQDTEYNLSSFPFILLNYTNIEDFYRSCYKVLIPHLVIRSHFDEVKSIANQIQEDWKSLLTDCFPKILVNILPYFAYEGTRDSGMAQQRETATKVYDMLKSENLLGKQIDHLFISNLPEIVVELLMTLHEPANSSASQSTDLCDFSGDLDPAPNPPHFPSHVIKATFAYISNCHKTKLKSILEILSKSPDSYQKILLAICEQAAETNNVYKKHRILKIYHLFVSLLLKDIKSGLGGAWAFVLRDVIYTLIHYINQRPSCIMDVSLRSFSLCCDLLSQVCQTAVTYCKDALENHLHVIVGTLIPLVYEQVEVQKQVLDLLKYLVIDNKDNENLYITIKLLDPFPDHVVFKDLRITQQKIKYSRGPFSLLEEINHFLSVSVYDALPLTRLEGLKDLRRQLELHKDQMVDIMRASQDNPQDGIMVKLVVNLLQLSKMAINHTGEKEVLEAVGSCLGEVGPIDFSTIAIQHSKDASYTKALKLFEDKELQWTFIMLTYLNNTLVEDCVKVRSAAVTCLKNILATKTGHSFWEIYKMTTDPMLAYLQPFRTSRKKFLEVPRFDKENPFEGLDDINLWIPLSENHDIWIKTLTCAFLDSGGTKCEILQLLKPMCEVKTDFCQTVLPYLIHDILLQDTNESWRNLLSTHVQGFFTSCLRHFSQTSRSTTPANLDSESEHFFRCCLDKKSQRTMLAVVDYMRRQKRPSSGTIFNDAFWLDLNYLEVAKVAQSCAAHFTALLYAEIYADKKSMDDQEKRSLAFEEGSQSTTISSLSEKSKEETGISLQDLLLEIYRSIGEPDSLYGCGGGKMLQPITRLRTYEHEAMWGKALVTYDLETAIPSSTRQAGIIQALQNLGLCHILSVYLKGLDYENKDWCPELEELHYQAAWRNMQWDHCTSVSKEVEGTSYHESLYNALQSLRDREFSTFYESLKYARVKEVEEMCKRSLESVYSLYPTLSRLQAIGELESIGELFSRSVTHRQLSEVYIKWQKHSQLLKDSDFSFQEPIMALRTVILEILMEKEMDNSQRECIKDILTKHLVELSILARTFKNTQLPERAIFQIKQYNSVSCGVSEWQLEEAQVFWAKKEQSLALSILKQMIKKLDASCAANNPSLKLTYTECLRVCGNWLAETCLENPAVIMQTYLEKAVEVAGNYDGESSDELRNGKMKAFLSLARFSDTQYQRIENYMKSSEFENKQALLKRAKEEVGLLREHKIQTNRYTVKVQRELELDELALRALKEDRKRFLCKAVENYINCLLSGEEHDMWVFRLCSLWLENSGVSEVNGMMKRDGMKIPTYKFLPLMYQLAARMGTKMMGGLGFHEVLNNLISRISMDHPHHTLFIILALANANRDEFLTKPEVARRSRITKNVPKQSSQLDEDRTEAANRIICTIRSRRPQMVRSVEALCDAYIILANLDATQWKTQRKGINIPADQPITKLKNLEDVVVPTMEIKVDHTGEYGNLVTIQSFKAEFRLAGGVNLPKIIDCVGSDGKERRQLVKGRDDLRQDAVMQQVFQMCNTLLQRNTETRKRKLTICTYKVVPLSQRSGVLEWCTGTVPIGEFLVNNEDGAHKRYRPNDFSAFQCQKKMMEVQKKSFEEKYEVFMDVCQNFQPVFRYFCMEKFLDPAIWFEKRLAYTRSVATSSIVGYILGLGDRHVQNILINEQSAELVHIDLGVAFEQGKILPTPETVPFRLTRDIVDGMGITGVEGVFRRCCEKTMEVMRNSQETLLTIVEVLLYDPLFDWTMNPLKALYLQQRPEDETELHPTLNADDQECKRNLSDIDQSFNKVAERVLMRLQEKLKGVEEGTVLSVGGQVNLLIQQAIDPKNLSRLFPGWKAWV

SMILES: COc1cc2ncc3c(c2cc1-c1cnn(C)c1)n(-c1ccc(F)cn1)c(=O)n3C [Compound Example 50, 1-(5-Fluoropyridin-2-yl)-7-methoxy-3-methyl-8-(1-methyl-1H-pyrazol-4-yl)-1,3-dihydroimidazo[4,5-c]-quinolin-2-one]
- IC50: < 10 nM

SMILES: CCn1cc(-n2c(=O)n(C)c3cnc4cc(OC)c(-c5cnn(C)c5)cc4c32)c(C)n1 [compound 130, 1-(1-Ethyl-3-methyl-1H-pyrazol-4-yl)-7-methoxy-3-methyl-8-(1-methyl-1H-pyrazol-4-yl)-1,3-dihydro-imidazo[4,5-c]quinolin-2-one]
- IC50: < 1 nM

SMILES: COc1ccc(-c2cc3c(cc2OC)ncc2c3n(-c3c(F)cncc3OC)c(=O)n2C)cn1 [compound 137, 1-(3-Fluoro-5-methoxy-pyridin-4-yl)-7-methoxy-8-(6-methoxypyridin-3-yl)-3-methyl-1,3-dihydroimidazo-[4,5-c]quinolin-2-one]
- IC50: < 10 nM

SMILES: COc1cc2ncc3[nH]c(=O)n(-c4ncc(F)cc4F)c3c2cc1-c1cnn(C)c1 [compound 107, 1-(3,5-Difluoropyridin-2-yl)-7-methoxy-8-(1-methyl-1H-pyrazol-4-yl)-1,3-dihydro-imidazo[4,5-c]quinolin-2-one]
- IC50: < 1 nM

SMILES: COc1cc2ncc3c(c2cc1-c1cnn(C)c1)n(-c1ncc(OCC2CN(C)C2)cc1F)c(=O)n3C [compound 207, 1-[3-Fluoro-5-(1-methyl-azetidin-3-ylmethoxy)-pyridin-2-yl]-7-methoxy-3-methyl-8-(1-methyl-1H-pyrazol-4-yl)-1,3-dihydro-imidazo[4,5-c]quinolin-2-one]
- IC50: < 10 nM

SMILES: COc1cc2ncc3c(c2cc1-c1cnn(C)n1)n(-c1ncc(F)cc1F)c(=O)n3C [compound 101, 1-(3,5-Difluoropyridin-2-yl)-7-methoxy-3-methyl-8-(2-methyl-2H-1,2,3-triazol-4-yl)-1,3-dihydroimidazo-[4,5-c] quinolin-2-one]
- IC50: < 50 nM

SMILES: COc1cc2ncc3c(c2cc1-c1cn(C)nc1C)n(-c1ncc(OCS(C)(=O)=O)cc1F)c(=O)n3C [compound 203, 8-(1,3-Dimethyl-1H-pyrazol-4-yl)-1-(3-fluoro-5-methyl-sulfonylmethoxypyridin-2-yl)-7-methoxy-3-methyl-1,3-dihydroimidazo[4,5-c]-quinolin-2-one]
- IC50: < 1 nM

SMILES: CCn1cc(-c2cc3c(cc2OC)ncc2c3n(-c3ncc(OC)cc3F)c(=O)n2C)cn1 [compound 111, 8-(1-Ethyl-1H-pyrazol-4-yl)-1-(3-fluoro-5-methoxy-pyridin-2-yl)-7-methoxy-3-methyl-1,3-dihydroimidazo-[4,5-c] quinolin-2-one]
- IC50: < 10 nM

SMILES: CNC(=O)c1cnc(-n2c(=O)n(C)c3cnc4cc(OC)c(-c5cn(C)nc5C)cc4c32)c(F)c1 [compound 139, 6-[8-(1,3-Dimethyl-1H-pyrazol-4-yl)-7-methoxy-3-methyl-2-oxo-2,3-dihydro-imidazo[4,5-c]quinolin-1-yl]-5-fluoro-N-methyl-nicotinamid]
- IC50: < 1 nM

SMILES: CCc1cnccc1-n1c(=O)n(C)c2cnc3cc(OC)c(-c4cnn(C)c4)cc3c21 [compound 156, 1-(3-Ethylpyridin-4-yl)-7-methoxy-3-methyl-8-(1-methyl-1H-pyrazol-4-yl)-1,3-dihydroimidazo[4,5-c] quinolin-2-one]
- IC50: < 1 nM

SMILES: COc1cc2ncc3c(c2cc1-c1cn(C)nn1)n(-c1ccncc1F)c(=O)n3C [compound 64, 1-(3-Fluoropyridin-4-yl)-7-methoxy-3-methyl-8-(1-methyl-1H-1,2,3-triazol-4-yl)-1,3-dihydroimidazo-[4,5-c] quinolin-2-one]
- IC50: < 10 nM

SMILES: COc1cnc(-n2c(=O)n(C)c3cnc4cc(OC)c(-c5cn(C)nc5C)cc4c32)c(F)c1 [compound 106, 8-(1,3-Dimethyl-1H-pyrazol-4-yl)-1-(3-fluoro-5-methoxypyridin-2-yl)-7-methoxy-3-methyl-1,3-dihydroimidazo[4,5-c]-quinolin-2-one]
- IC50: < 1 nM

SMILES: COc1cc2ncc3c(c2cc1-c1cnc2nc(C)[nH]c2c1)n(-c1cn(C)nc1C)c(=O)n3C [compound 154, 1-(1,3-Dimethyl-1H-pyrazol-4-yl)-7-methoxy-3-methyl-8-(2-methyl-1H-imidazo[4,5-b]pyridin-6-yl)-1,3-dihydro-imidazo[4,5-c]quinolin-2-one]
- IC50: < 1 nM

SMILES: CCn1cc(-c2cc3c(cc2OC)ncc2c3n(-c3c(F)cncc3OC)c(=O)n2C)c(C)n1 [compound 142, 8-(1-Ethyl-3-methyl-1H-pyrazol-4-yl)-1-(3-fluoro-5-methoxypyridin-4-yl)-7-methoxy-3-methyl-1,3-dihydroimidazo[4,5-c] quinolin-2-one]
- IC50: < 1 nM

SMILES: COc1cnc(-n2c(=O)n(C)c3cnc4cc(OC)c(-c5cn(C)nn5)cc4c32)c(F)c1 [compound 133, 1-(3-Fluoro-5-methoxy-pyridin-2-yl)-7-methoxy-3-methyl-8-(1-methyl-1H-1,2,3-triazol-4-yl)-1,3-dihydroimidazo[4,5-c] quinolin-2-one]
- IC50: < 10 nM

SMILES: COc1cnc(-n2c(=O)n(C)c3cnc4cc(OC)c(-c5cnn[nH]5)cc4c32)c(F)c1 [compound 128, 1-(3-Fluoro-5-methoxy-pyridin-2-yl)-7-methoxy-3-methyl-8-(3H-1,2,3-triazol-4-yl)-1,3-dihydroimidazo-[4,5-c] quinolin-2-one]
- IC50: < 10 nM

SMILES: COc1cc2ncc3[nH]c(=O)n(-c4c(F)cncc4OC)c3c2cc1-c1cn(C)nc1C [compound 129, 8-(1,3-Dimethyl-1H-pyrazol-4-yl)-1-(3-fluoro-5-methoxy-pyridin-4-yl)-7-methoxy-1,3-dihydroimidazo[4,5-c]-quinolin-2-one]
- IC50: < 1 nM

SMILES: COc1cnc(-n2c(=O)[nH]c3cnc4cc(OC)c(-c5cnn(C)c5)cc4c32)c(F)c1 [compound 115, 1-(3-Fluoro-5-methoxy-pyridin-2-yl)-7-methoxy-8-(1-methyl-1H-pyrazol-4-yl)-1,3-dihydroimidazo[4,5-c]-quinolin-2-one]
- IC50: < 10 nM

SMILES: COc1cc2ncc3c(c2cc1-c1cnn(C(F)F)c1)n(-c1c(F)cncc1OC)c(=O)n3C [compound 143, 8-(1-Difluoromethyl-1H-pyrazol-4-yl)-1-(3-fluoro-5-methoxypyridin-4-yl)-7-methoxy-3-methyl-1,3-dihydroimidazo[4,5-c] quinolin-2-one]
- IC50: < 1 nM

SMILES: CCOc1cnc(-n2c(=O)n(C)c3cnc4cc(OC)c(-c5cnn(C)c5)cc4c32)c(F)c1 [compound 113, 1-(5-Ethoxy-3-fluoropyridin-2-yl)-7-methoxy-3-methyl-8-(1-methyl-1H-pyrazol-4-yl)-1,3-dihydroimidazo[4,5-c]-quinolin-2-one]
- IC50: < 1 nM

SMILES: COc1cc2ncc3c(c2cc1-c1cnn(C)c1)n(-c1ccc2cc[nH]c2n1)c(=O)n3C [compound 69, 7-Methoxy-3-methyl-8-(1-methyl-1H-pyrazol-4-yl)-1-(1H-pyrrolo[2,3-b]pyridin-6-yl)1,3-dihydroimidazo-[4,5-c]quinolin-2-one]
- IC50: < 1 nM

SMILES: COc1cc2ncc3c(c2cc1-c1cnc2nc(C)[nH]c2c1)n(-c1c(F)cncc1OC)c(=O)n3C [compound 152, 1-(3-Fluoro-5-methoxy-pyridin-4-yl)-7-methoxy-3-methyl-8-(2-methyl-1H-imidazo[4,5-b]pyridin-6-yl)-1,3-dihydroimidazo[4,5-c]-quinolin-2-one]
- IC50: < 1 nM
